According to patent EP4796129A1, “ANTI-NECTIN-4 ANTIBODY-DRUG CONJUGATE COMPRISING CAMPTOTHECIN DERIVATIVE” (Celltrion, Inc., priority 2023, dated 2025):

Experiments:
[1] = test system: PC-3 (a prostate cancer cell line); experiment: In-vitro cell viability assay (CellTiter-Glo); format: cell-based
[2] = test system: SUM190PT (a breast cancer cell line); experiment: In-vitro cell viability assay (CellTiter-Glo); format: cell-based
[3] = test system: T47D (a breast cancer cell line); experiment: cells; settings: Homo sapiens
Method: Specifically, the cell lines described in Table 5 were seeded per well in a 96-well plate and incubated at room temperature (37°C, 5% CO2). After 24 hours, the cells were treated with 100 µL of payload compounds or ADC drugs at 9 concentrations (a 4-fold serial dilution starting from 1,000 nM). In particular, a control group (drug concentration 0), which is an untreated group, was also prepared. After 6 days of incubation (37°C, 5% CO2), 100 µL of CellTiter-Glo reagent (CellTiter-Glo® Luminescent Cell Viability Assay kit (Promega, G7571)) was added to each well and pipetted. Fluorescence was measured after incubation at room temperature (RT) for 10 minutes.

[4] = test system: T47D human breast cancer; experiment: Xenograft model of T47D human breast cancer (xxT47D) in BALB/c nude mice; format: in vivo, female BALB/c nude mice; settings: 50 mg/kg p.o. QD x 4 weeks
[5] = test system: bladder cancer xenograft model (BL9200); experiment: HuPrime bladder cancer xenograft model (BL9200) in NOD/SCID mice; format: in vivo, NOD/SCID strain female mice; settings: for Tumor Volume (mean ± SEM), Day 25: number of mice in brackets

CC[C@@]1(O)C(=O)OCc2c1cc1n(c2=O)Cc2c-1nc1cc(F)c(C)c3c1c2[C@@H](N)CC3 [Exatecan, reference compound] showed an IC50 [1] of 0.62 nM and an IC50 [2] of 2.3 nM.

For CC[C@@]1(O)C(=O)OCc2c1cc1n(c2=O)Cc2c-1nc1cc3c(c4c1c2[C@@H](NC(=O)[C@@H](C)O)CC4)OCO3 [PBX-7016], the IC50 [3] was 0.47 nM, the IC50 [1] was 3.51 nM and the IC50 [2] was 9.4 nM.

With CC(=O)c1c(C)c2cnc(Nc3ccc(N4CCNCC4)cn3)nc2n(C2CCCC2)c1=O [Palbociclib] the “Tumor Weight (g) on Day 28, mean ± SEM” value [4] was 0.396 ± 0.047 g, the “Tumor Volume (mm^3), mean ± SEM” value ([4]; day 3) was 249 ± 17 mm^3 and the “Tumor Volume (mm^3), mean ± SEM” value ([4]; day 7) was 290 ± 22 mm^3. For the same compound, the “Tumor Volume (mm^3), mean ± SEM” value ([4]; day 10) was 328 ± 23 mm^3, the “Tumor Volume (mm^3), mean ± SEM” value ([4]; day 14) was 342 ± 26 mm^3 and the “Tumor Volume (mm^3), mean ± SEM” value ([4]; day 17) was 344 ± 29 mm^3. For the same compound, the “Tumor Volume (mm^3), mean ± SEM” value ([4]; day 21) was 360 ± 36 mm^3, the “Tumor Volume (mm^3), mean ± SEM” value ([4]; day 24) was 384 ± 42 mm^3 and the “T/Cweight (%)” value ([4]; day 28) was 41.79%. The “TGI (%)” value ([4]; day 28) was 70.93%, the “Tumor Volume (mm^3), mean ± SEM” value ([4]; day 28) was 407 ± 49 mm^3 and the “T/C (%)” value ([4]; tumor volume day 28 vs control G1) was 43.63%.

For “PADCEV: ADC in which anti-Nectin4 mAb and MMAE are linked by an mc-vc-PAB linker [reference compound]”, the “TGI (%), Day 25” value ([5]; 5 mg/kg i.v. QW × 3wks) was 108.4%, the “ΔT/ΔC (%), Day 25” value ([5]; 5 mg/kg i.v. QW × 3wks) was -8.4% and the “Tumor Volume (mean ± SEM), Day 25” value ([5]; 5 mg/kg i.v. QW × 3wks) was 27.26 +/- 2.75(10) mm^3. For the same compound, the “TGI (%), Day 25” value ([5]; 10 mg/kg i.v. QW × 3wks) was 109.4%, the “ΔT/ΔC (%), Day 25” value ([5]; 10 mg/kg i.v. QW × 3wks) was -9.4% and the “Tumor Volume (mean ± SEM), Day 25” value ([5]; 10 mg/kg i.v. QW × 3wks) was 11.07 +/- 3.12(10) mm^3.
